According to US6914045B2, “Glycopeptide antibiotics” (Wyeth Holdings Corporation, priority 2001, dated 2005):
≈ marks a conversion by molar mass, not a printed value.

Tests used:
[1] = clinical pathology (serum clinical chemistry) in mice; format: in vivo; settings: CD-1 mice, 20 mg/kg intravenously daily for 9 days, sera day 10
Method: 20-day-old CD-1 mice were divided into a vehicle control group (5 mice) and a treatment group (5 mice). Samples of glycopeptide antibiotics were administered at 20 mg/kg intravenously daily for 9 days.

[2] = anatomic pathology (histopathology of heart and kidney) in mice; format: in vivo; settings: CD-1 mice, 20 mg/kg intravenously daily for 9 days, necropsy day 10, microscopic histopathology
Method: Samples of tissues from necropsied mice were formalin-fixed, paraffin-embedded, sectioned, stained with hematoxylin and eosin, and examined microscopically. Histopathologic findings were recorded. These findings were subjectively graded on a scale corresponding to slight, mild, moderate, marked and severe as compared to untreated controls.

Streptococcus sp. = assay: in vitro antibacterial evaluation, MIC by broth dilution; format: cell-based; settings: broth dilution, 18 hours at 35° C.
Method in brief: (§1)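 Inoculum 5×10^5 CFU/mL; concentrations 64 to 0.06 μg/mL; MIC defined as lowest inhibitory level. Conducted by broth dilution under NCCLS guidelines.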

Enterococcus sp. = assay: as above; format: cell-based; settings: broth dilution, 18 hours at 35° C.
Method in brief: as §1

Escherichia coli = assay: as above; format: cell-based; settings: 18 hours at 35° C.
Method in brief: as §1

Staphylococcus sp. = assay: as above; format: cell-based; settings: broth dilution, 18 hours at 35° C.
Method in brief: as §1

## CC(c1ccccc1)C1NC(=O)CNC(=O)C(CO)NC(=O)C(C(O)C2CNC(=N)N2C2OC(CO)C(O)C(O)C2O)NC(=O)C(C(O)C2CNC(=N)N2)NC(=O)C(Cc2ccc(OC3OC(CO)C(OC4OC5COC(Cc6ccccc6)OC5C(O)C4O)C(O)C3O)cc2)NC1=O (stereo not drawn) [Example 102, Cyclo[glycyl-β-methylphenylalanyl-O-[4-O-(4,6-O-phenethylidenehexopyranosyl)-hexopyranosyl]tyrosyl-3-(2-iminoimidazolidin-4-yl)seryl-3-(3-hexopranosyl-2-iminoimidazolidin-4-yl)serylseryl]]
[1]
  Clinical Chemistry (Day 10) % of Control, ALT: +672%
  Clinical Chemistry (Day 10) % of Control, AST: +340%
  Clinical Chemistry (Day 10) % of Control, BUN: +249%
  Clinical Chemistry (Day 10) % of Control, Creatinine: +100%
[2]
  Anatomical Pathology (Day 10), Heart: +++
  Anatomical Pathology (Day 10), Kidney: +++
Streptococcus sp.; Streptococcus agalactiae (GC 4564)
  MIC Streptococcus agalactiae (GC 4564): <0.12 to 0.25 µg/mL
Streptococcus sp.; Streptococcus pneumoniae (ATCC 6301)
  MIC Streptococcus pneumoniae (ATCC 6301): <0.06 µg/mL
Streptococcus sp.; Streptococcus pneumoniae (GC 1894)
  MIC Streptococcus pneumoniae (GC 1894): <0.06 µg/mL
Streptococcus sp.; Streptococcus pyogenes (GC 4563)
  MIC Streptococcus pyogenes (GC 4563): <0.12 to 0.25 µg/mL
Streptococcus sp.; strain ATCC 6301
  MIC Streptococcus pneumoniae (ATCC 6301): <0.06 µg/mL
Streptococcus sp.; strain GC 1894
  MIC Streptococcus pneumoniae (GC 1894): <0.06 µg/mL
Streptococcus sp.; strain GC 4563
  MIC Streptococcus pyogenes (GC 4563): <0.12 to 0.25 µg/mL
Streptococcus sp.; strain GC 4564
  MIC Streptococcus agalactiae (GC 4564): <0.12 to 0.25 µg/mL
Enterococcus sp.; Enterococcus avium (GC 4558)
  MIC Enterococcus avium (GC 4558): 2 to 4 µg/mL
Enterococcus sp.; Enterococcus faecalis (ATCC 29212)
  MIC Enterococcus faecalis (ATCC 29212): 2 to 4 µg/mL
Enterococcus sp.; Enterococcus faecalis (GC 2242)
  MIC Enterococcus faecalis (GC 2242): 2 to 4 µg/mL
Enterococcus sp.; Enterococcus faecalis (GC 2691)
  MIC Enterococcus faecalis (GC 2691): 2 to 4 µg/mL
Enterococcus sp.; Enterococcus faecalis (GC 3059)
  MIC Enterococcus faecalis (GC 3059): 2 to 4 µg/mL
Enterococcus sp.; Enterococcus faecalis (GC 4552)
  MIC Enterococcus faecalis (GC 4552): 2 to 4 µg/mL
Enterococcus sp.; Enterococcus faecalis (GC 4553)
  MIC Enterococcus faecalis (GC 4553): 2 to 4 µg/mL
Enterococcus sp.; Enterococcus faecalis (GC 4554)
  MIC Enterococcus faecalis (GC 4554): 2 to 4 µg/mL
Enterococcus sp.; Enterococcus faecalis (GC 6189)
  MIC Enterococcus faecalis (GC 6189): 2 to 4 µg/mL
Enterococcus sp.; Enterococcus faecium (GC 2243)
  MIC Enterococcus faecium (GC 2243): 2 to 4 µg/mL
Enterococcus sp.; Enterococcus faecium (GC 4556)
  MIC Enterococcus faecium (GC 4556): 2 to 4 µg/mL
Enterococcus sp.; Enterococcus faecium (GC 4557)
  MIC Enterococcus faecium (GC 4557): 1 to 2 µg/mL
Enterococcus sp.; strain ATCC 29212
  MIC Enterococcus faecalis (ATCC 29212): 2 to 4 µg/mL
Enterococcus sp.; strain GC 2242
  MIC Enterococcus faecalis (GC 2242): 2 to 4 µg/mL
Enterococcus sp.; strain GC 2243
  MIC Enterococcus faecium (GC 2243): 2 to 4 µg/mL
Enterococcus sp.; strain GC 2691
  MIC Enterococcus faecalis (GC 2691): 2 to 4 µg/mL
Enterococcus sp.; strain GC 3059
  MIC Enterococcus faecalis (GC 3059): 2 to 4 µg/mL
Enterococcus sp.; strain GC 4552
  MIC Enterococcus faecalis (GC 4552): 2 to 4 µg/mL
Enterococcus sp.; strain GC 4553
  MIC Enterococcus faecalis (GC 4553): 2 to 4 µg/mL
Enterococcus sp.; strain GC 4554
  MIC Enterococcus faecalis (GC 4554): 2 to 4 µg/mL
Enterococcus sp.; strain GC 4556
  MIC Enterococcus faecium (GC 4556): 2 to 4 µg/mL
Enterococcus sp.; strain GC 4557
  MIC Enterococcus faecium (GC 4557): 1 to 2 µg/mL
Enterococcus sp.; strain GC 4558
  MIC Enterococcus avium (GC 4558): 2 to 4 µg/mL
Enterococcus sp.; strain GC 6189
  MIC Enterococcus faecalis (GC 6189): 2 to 4 µg/mL
Escherichia coli; strain ATCC 25922
  MIC Escherichia coli (ATCC 25922): 16 to 64 µg/mL
Escherichia coli; strain GC 4559
  MIC Escherichia coli (GC 4559): 16 to 32 µg/mL
Escherichia coli; strain GC 4560
  MIC Escherichia coli (GC 4560): 0.5 to 1 µg/mL
Staphylococcus sp.
  MIC Coagulase Negative Staphylococcus (GC 4547): 1 µg/mL (≈ 0.716 µM)
  MIC Coagulase Negative Staphylococcus (GC 4548): 0.5 to 1 µg/mL
  MIC Coagulase Negative Staphylococcus (GC 4549): 0.5 to 1 µg/mL
  MIC Coagulase Negative Staphylococcus (GC 4551): 1 to 2 µg/mL
  MIC Coagulase Negative Staphylococcus (GC 6257): 0.5 µg/mL (≈ 0.358 µM)
  MIC Staphylococcus aureus (ATCC 29213): 1 to 2 µg/mL
  MIC Staphylococcus aureus (GC 1131): 2 µg/mL (≈ 1.43 µM)
  MIC Staphylococcus aureus (GC 3051): 1 µg/mL (≈ 0.716 µM)
  MIC Staphylococcus aureus (GC 3053): 1 to 2 µg/mL
  MIC Staphylococcus aureus (GC 4541): 1 to 2 µg/mL
  MIC Staphylococcus aureus (GC 4542): 0.5 to 1 µg/mL
  MIC Staphylococcus aureus (GC 4544): 1 to 2 µg/mL
  MIC Staphylococcus aureus (GC 4545): 0.5 to 1 µg/mL
  MIC Staphylococcus aureus-SMITH (GC 4543): 0.5 to 1 µg/mL
  MIC Staphylococcus haemolyticus (GC 4546): 0.5 to 1 µg/mL
Staphylococcus sp.; strain GC 4546
  MIC Staphylococcus haemolyticus (GC 4546): 0.5 to 1 µg/mL
Staphylococcus sp.; strain GC 4547
  MIC Coagulase Negative Staphylococcus (GC 4547): 1 µg/mL (≈ 0.716 µM)
Staphylococcus sp.; strain GC 4548
  MIC Coagulase Negative Staphylococcus (GC 4548): 0.5 to 1 µg/mL
Staphylococcus sp.; strain GC 4549
  MIC Coagulase Negative Staphylococcus (GC 4549): 0.5 to 1 µg/mL
Staphylococcus sp.; strain GC 4551
  MIC Coagulase Negative Staphylococcus (GC 4551): 1 to 2 µg/mL
Staphylococcus sp.; strain GC 6257
  MIC Coagulase Negative Staphylococcus (GC 6257): 0.5 µg/mL (≈ 0.358 µM)
Staphylococcus sp.; strain SMITH GC 4543
  MIC Staphylococcus aureus-SMITH (GC 4543): 0.5 to 1 µg/mL
Staphylococcus sp.; strain ATCC 29213
  MIC Staphylococcus aureus (ATCC 29213): 1 to 2 µg/mL
Staphylococcus sp.; strain GC 1131
  MIC Staphylococcus aureus (GC 1131): 2 µg/mL (≈ 1.43 µM)
Staphylococcus sp.; strain GC 3051
  MIC Staphylococcus aureus (GC 3051): 1 µg/mL (≈ 0.716 µM)
Staphylococcus sp.; strain GC 3053
  MIC Staphylococcus aureus (GC 3053): 1 to 2 µg/mL
Staphylococcus sp.; strain GC 4541
  MIC Staphylococcus aureus (GC 4541): 1 to 2 µg/mL
Staphylococcus sp.; strain GC 4542
  MIC Staphylococcus aureus (GC 4542): 0.5 to 1 µg/mL
Staphylococcus sp.; strain GC 4544
  MIC Staphylococcus aureus (GC 4544): 1 to 2 µg/mL
Staphylococcus sp.; strain GC 4545
  MIC Staphylococcus aureus (GC 4545): 0.5 to 1 µg/mL
